In US10052320B2, “Substituted quinoxalines as FGFR kinase inhibitors” (ASTEX THERAPEUTICS LIMITED, priority 2011, dated 2018):

Tests used:
[1] = biological target: Ba/F3-FGFR4-transfected cells (Homo sapiens, UniProt P22455); assay: Ba/F3-FGFR4 cellular proliferation assay, Alamar Blue; assay type: cell-based
Procedure: Ba/F3-FGFR4 (Cellular Proliferation Assay)
In a 384 well plate, 100 nl of compound dilution in DMSO was sprayed before adding 50 μl cell culture medium (phenol red free RPMI-1640, 10% FBS, 2 mM L-Glutamine and 50 μg/ml Gentamycin) containing 20000 cells per well of Ba/F3-FGFR4-transfected cells. Cells were put in an incubator at 37° C. and 5% CO2. After 24 hours, 10 μl of Alamar Blue solution (0.5 mM K3Fe(CN)6, 0.5 mM KaFe(CN)6, 0.15 mM Resazurin and 100 mM Phosphate Buffer) was added to the wells, incubated for 4 hours at 37° C. and 5% CO2 before RFU's (Relative Fluorescence Units) (ex. 540 nm., em. 590 nm.) were measured in a flurorescence plate reader.

[2] = biological target: FGFR2 (h) (Homo sapiens, UniProt P21802); assay: FGFR2 (enzymatic assay), TR-FRET; assay type: biochemical; conditions: read-out: FGFR 2 pIC50 (converted)
Procedure: In a final reaction volume of 30 μL, FGFR2 (h) (150 ng/ml) was incubated with 50 mM HEPES pH 7.5, 6 mM MnCl2, 1 mM DTT, 0.1 mM Na3VO4, 0.01% Triton-X-100, 500 nM Btn-Flt3 and 0.4 μM ATP in the presence of compound (1% DMSO final). […] Time-Resolved Fluorescence Resonance Energy Transfer (TR-FRET) signal (ex340 nm. Em 620 nm, em 655 nm) was measured afterwards and results are expressed in (Relative Fluorescence Units).

[3] = biological target: T1, Ba/F3-Flt3-transfected cells (Homo sapiens, UniProt P36888, cells depend on it, form not given); assay: Ba/F3-Flt3 (minus IL3) cellular proliferation assay, Alamar Blue; assay type: cell-based; conditions: minus IL3
T1 sequence (P36888 1-993): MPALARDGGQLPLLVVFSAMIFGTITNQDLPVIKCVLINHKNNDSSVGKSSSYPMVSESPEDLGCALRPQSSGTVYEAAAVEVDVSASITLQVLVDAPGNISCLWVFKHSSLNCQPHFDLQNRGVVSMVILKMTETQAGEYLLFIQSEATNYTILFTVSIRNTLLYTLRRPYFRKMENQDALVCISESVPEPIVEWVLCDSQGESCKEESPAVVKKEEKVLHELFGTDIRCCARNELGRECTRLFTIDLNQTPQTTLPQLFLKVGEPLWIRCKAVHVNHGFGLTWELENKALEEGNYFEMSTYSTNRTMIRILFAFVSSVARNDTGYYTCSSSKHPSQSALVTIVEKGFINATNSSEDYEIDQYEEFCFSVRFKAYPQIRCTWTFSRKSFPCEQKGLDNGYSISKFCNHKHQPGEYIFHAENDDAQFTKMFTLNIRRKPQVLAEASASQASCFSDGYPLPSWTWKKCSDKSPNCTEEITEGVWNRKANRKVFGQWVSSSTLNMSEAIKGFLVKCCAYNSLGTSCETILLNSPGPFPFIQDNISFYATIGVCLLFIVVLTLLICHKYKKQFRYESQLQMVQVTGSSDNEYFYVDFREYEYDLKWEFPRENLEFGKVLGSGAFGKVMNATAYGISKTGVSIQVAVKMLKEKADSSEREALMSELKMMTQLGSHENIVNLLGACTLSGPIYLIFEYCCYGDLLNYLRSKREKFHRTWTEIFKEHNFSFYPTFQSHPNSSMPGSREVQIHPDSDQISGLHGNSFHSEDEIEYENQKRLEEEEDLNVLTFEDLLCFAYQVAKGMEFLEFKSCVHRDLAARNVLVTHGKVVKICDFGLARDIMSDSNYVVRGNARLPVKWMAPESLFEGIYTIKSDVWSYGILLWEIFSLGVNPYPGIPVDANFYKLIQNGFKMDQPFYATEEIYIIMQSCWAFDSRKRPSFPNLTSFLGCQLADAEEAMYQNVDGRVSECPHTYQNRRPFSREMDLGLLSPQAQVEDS

[4] = biological target: KDR (h) (VEGFR2) (Homo sapiens, UniProt P35968); assay: KDR (VEGFR2) (enzymatic assay), TR-FRET; assay type: biochemical
Outline: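 Phosphorylation of biotinylated Flt3 peptide (500 nM) by 150 ng/ml enzyme was measured at 3 μM ATP in Mn2+-containing HEPES buffer, pH 7.5, over 120 min at room temperature. Detection used Eu-anti-P-Tyr and SA-XL-665 TR-FRET.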

[5] = biological target: FGFR3 (h) (Homo sapiens, UniProt P22607); assay: FGFR3 (enzymatic assay), TR-FRET; assay type: biochemical; conditions: read-out: FGFR 3 pIC50 (converted)
Procedure: In a final reaction volume of 30 μL, FGFR3 (h) (40 ng/ml) was incubated with 50 mM HEPES pH 7.5, 6 mM MnCl2, 1 mM DTT, 0.1 mM Na3VO4, 0.01% Triton-X-100, 500 nM Btn-Flt3 and 25 μM ATP in the presence of compound (1% DMSO final). […] Time-Resolved Fluorescence Resonance Energy Transfer (TR-FRET) signal (ex340 nm. Em 620 nm, em 655 nm) was measured afterwards and results are expressed in RFU (Relative Fluorescence Units).

FGFR3 (h), sequence (P22607 23-806): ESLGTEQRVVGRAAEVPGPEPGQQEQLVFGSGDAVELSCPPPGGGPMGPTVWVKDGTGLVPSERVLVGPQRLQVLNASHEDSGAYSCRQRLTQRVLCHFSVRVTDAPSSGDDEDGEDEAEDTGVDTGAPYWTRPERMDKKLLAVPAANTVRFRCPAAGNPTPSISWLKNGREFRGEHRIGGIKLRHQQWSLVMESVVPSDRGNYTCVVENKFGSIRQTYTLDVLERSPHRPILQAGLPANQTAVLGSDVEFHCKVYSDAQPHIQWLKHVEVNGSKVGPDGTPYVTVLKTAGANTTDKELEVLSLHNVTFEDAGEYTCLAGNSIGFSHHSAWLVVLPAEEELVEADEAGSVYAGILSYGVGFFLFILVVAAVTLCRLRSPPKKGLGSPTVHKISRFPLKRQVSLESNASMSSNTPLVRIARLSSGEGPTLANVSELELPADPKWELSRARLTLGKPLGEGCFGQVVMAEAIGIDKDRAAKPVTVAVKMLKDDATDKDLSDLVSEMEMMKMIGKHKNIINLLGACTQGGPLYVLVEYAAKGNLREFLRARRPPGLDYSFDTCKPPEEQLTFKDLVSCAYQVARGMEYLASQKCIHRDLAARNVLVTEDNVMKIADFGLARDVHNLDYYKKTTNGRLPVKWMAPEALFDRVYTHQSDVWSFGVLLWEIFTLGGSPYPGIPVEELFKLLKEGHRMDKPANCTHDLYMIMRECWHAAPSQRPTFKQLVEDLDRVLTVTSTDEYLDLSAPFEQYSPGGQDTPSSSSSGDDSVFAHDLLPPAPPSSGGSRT
Ba/F3-FGFR4-transfected cells, sequence (P22455 whole entry, change not shown): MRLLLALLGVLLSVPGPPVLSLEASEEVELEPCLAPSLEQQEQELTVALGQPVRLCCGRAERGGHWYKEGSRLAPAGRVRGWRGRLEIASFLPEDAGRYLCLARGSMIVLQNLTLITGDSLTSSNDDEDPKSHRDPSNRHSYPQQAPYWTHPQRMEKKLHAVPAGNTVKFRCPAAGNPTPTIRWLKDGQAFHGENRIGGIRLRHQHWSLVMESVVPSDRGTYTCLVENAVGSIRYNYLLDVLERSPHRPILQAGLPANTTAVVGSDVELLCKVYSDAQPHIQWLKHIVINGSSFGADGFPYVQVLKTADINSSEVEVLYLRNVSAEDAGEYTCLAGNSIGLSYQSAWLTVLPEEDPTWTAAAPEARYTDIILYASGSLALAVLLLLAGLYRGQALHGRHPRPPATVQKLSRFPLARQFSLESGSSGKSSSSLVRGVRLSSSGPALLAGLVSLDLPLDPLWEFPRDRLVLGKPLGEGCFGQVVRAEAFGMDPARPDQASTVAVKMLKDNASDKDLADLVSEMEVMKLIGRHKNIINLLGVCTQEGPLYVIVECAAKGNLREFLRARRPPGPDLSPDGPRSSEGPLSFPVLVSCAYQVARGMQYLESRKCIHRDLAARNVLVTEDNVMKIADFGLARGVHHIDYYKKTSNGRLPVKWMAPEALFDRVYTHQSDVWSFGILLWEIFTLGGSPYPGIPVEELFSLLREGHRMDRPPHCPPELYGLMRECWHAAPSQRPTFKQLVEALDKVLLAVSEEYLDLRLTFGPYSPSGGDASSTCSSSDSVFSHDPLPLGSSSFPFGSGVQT
FGFR2 (h), sequence (P21802 22-821): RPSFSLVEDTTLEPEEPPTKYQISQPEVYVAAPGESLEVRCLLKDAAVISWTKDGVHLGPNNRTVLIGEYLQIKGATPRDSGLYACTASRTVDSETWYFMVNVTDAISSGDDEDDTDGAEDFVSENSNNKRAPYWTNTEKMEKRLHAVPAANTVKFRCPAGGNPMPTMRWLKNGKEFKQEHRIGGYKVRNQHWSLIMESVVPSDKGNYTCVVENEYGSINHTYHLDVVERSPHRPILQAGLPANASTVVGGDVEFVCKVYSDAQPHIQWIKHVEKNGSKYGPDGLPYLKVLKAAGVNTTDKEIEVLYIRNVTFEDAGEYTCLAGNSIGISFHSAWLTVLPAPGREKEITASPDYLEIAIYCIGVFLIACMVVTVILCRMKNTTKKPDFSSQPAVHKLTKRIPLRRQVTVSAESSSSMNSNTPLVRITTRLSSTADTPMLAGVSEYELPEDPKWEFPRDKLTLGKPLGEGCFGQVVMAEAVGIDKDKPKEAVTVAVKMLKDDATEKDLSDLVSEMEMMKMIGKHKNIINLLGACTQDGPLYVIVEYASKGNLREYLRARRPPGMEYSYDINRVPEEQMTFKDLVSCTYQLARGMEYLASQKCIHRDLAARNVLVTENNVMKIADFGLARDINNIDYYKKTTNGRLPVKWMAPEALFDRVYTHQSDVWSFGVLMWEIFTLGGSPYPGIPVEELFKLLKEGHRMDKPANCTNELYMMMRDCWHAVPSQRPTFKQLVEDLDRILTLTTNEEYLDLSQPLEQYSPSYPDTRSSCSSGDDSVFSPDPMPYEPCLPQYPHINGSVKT
KDR (h) (VEGFR2), sequence (P35968 20-1356): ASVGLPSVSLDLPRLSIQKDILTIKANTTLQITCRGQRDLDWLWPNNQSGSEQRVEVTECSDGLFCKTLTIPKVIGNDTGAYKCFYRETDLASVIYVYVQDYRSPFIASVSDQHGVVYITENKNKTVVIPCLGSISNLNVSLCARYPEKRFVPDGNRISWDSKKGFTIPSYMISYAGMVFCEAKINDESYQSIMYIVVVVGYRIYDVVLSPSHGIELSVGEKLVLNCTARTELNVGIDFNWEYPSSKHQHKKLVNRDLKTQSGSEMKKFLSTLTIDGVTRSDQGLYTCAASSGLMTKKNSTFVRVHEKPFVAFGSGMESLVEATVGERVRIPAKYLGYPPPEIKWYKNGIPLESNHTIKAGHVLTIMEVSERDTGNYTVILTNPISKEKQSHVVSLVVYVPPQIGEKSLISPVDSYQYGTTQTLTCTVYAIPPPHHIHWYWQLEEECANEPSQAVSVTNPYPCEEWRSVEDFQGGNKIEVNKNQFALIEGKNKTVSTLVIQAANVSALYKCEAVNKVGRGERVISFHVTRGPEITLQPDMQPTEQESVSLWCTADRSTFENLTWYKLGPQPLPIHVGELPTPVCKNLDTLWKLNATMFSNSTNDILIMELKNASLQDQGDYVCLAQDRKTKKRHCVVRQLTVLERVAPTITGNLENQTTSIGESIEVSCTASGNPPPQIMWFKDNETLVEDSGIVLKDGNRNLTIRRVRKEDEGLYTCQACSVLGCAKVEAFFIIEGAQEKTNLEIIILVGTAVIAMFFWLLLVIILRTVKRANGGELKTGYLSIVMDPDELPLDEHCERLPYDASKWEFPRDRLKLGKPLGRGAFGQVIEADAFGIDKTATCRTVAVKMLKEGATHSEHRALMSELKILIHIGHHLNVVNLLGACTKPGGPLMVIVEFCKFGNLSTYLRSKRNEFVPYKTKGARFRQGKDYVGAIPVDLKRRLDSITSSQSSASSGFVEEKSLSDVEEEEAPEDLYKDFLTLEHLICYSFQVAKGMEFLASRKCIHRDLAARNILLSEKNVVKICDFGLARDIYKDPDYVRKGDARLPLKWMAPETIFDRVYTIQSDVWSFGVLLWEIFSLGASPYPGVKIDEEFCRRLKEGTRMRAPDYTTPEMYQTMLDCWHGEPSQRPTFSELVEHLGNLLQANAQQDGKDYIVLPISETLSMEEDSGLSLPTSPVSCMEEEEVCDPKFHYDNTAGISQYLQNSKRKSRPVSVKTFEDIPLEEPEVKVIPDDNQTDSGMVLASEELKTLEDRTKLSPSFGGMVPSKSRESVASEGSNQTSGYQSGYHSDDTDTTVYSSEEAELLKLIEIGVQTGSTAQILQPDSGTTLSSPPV

Row | SMILES | BAF3-FGFR4 pIC50 [1] | IC50 [2] [nM] | BAF3-FLT3 (MIN IL3) 384 well pIC50 [3] | IC50 [4] [nM] | IC50 [5] [nM]
1 | COc1cc(OC)cc(N(CCCNC(C)C)c2ccc3ncc(-c4ccnc(NC(=O)NC(C)C)c4)nc3c2)c1 [Compound 131] | 6.0 | 4.68 | 5.5 | 200 | 5.89
2 | COc1cc(OC)cc(N(CCCNCCCO)c2ccc3ncc(-c4ccnc(C(=O)NCCCCN)c4)nc3c2)c1 [Compound 132] | 5.6 | 8.71 | 5.31 | 309 | 18.6
3 | COc1cc(OC)cc(N(CCCO)c2ccc3ncc(-c4ccnc(-c5ccnc(Cl)c5)c4)nc3c2)c1 [Compound 133] | <5 | 115 | <5 | > 1000 | 50.1
4 | COc1cc(OC)cc(N(CCCNC(C)C)c2ccc3ncc(-c4ccnc(NC(=O)OC(C)(C)C)c4)nc3c2)c1 [Compound 137] | 6.1 | 8.32 | 5.91 | 275 | 8.51
5 | COc1cc(OC)cc(N(CCO)c2ccc3ncc(-c4ccnc(C(=O)NCCCCCN)c4)nc3c2)c1 [Compound 138] | 5.1 | ~31.6 | <5 | 759 | 16.2
6 | COc1cc(OC)cc(N(CCCNCC(F)(F)F)c2ccc3ncc(-c4ccnc(F)c4)nc3c2)c1 [Compound 144] | <5 | ~85.1 | <5 | > 1000 | 56.2
7 | COc1cc(OC)cc(N(CCCNCC(F)(F)F)c2ccc3ncc(-c4ccnc(Cl)c4)nc3c2)c1 [Compound 145] | <5.35 | 166 | <5 | > 1000 | 97.7
8 | COc1cc(OC)cc(N(CCNC(C)C)c2ccc3ncc(-c4ccnc(C(=O)NCCCN)c4)nc3c2)c1 [Compound 146] | 6.3 | 8.13 | <5 | 269 | 12.3
9 | COc1cc(OC)cc(N(CCCNCC(F)(F)F)c2ccc3ncc(-c4ccnc(C(=O)NCCCN)c4)nc3c2)c1 [Compound 148] | <5 | 58.9 | <5 | > 1000 | 61.7
10 | COc1cc(OC)cc(N(CCCNCC(F)(F)F)c2ccc3ncc(-c4ccnc(C(=O)NCCCCCO)c4)nc3c2)c1 [Compound 150] | ~5.0 | 70.8 | <5 | 708 | 49
11 | COc1cc(OC)cc(N(CCCNCC(F)(F)F)c2ccc3ncc(C(=O)NCCN4CCOCC4)nc3c2)c1 [Compound 158] | 5.1 | 661 | <5 | > 1000 | 537
12 | COc1cc(OC)cc(N(CCNC(C)C)c2ccc3ncc(C(=O)NCCCN4CCN(C)CC4)nc3c2)c1 [Compound 159] | ~5.5 | 66.1 | <5 | > 1000 | 155
13 | COc1cc(OC)cc(N(CCNC(C)C)c2ccc3ncc(C(=O)NCCN4CCOCC4)nc3c2)c1 [Compound 160] | 5.8 | 57.5 | <5 | > 1000 | 91.2
14 | COc1cc(OC)cc(N(CCNC(C)C)c2ccc3ncc(NCC4CCNCC4)nc3c2)c1 [Compound 161] | <5 | 14.1 | <5 | 617 | 44.7
15 | COc1cc(OC)cc(N(CCNC(C)C)c2ccc3ncc(-n4cnc(COC(C)=O)c4)nc3c2)c1 [Compound 167] | 6.4 | 7.76 | <5 | 251 | 11

Second part, the compound after the results:

Row | BAF3-FGFR4 pIC50 [1] | IC50 [2] [nM] | BAF3-FLT3 (MIN IL3) 384 well pIC50 [3] | IC50 [4] [nM] | IC50 [5] [nM] | SMILES
16 | 6.1 | 6.17 | 5.43 | 170 | 2.45 | COc1cc(OC)cc(N(CCCO)c2ccc3ncc(-c4cnc(N5CCN(C)CC5)c(C)c4)nc3c2)c1 [Compound 135]
17 | <5 | 39.8 | <5 | 692 | 11.5 | COc1cc(OC)cc(N(CCO)c2ccc3ncc(-c4ccnc(C(=O)NCCCCCO)c4)nc3c2)c1 [Compound 139]
18 | 6.9 | 3.39 | ~5.25 | 52.5 | 2.51 | COc1cc(OC)cc(N(CCCNC(C)C)c2ccc3ncc(-c4ccnc(N)c4)nc3c2)c1 [Compound 143]
19 | 5.6 | 102 | <5 | > 1000 | 35.5 | COc1cc(OC)cc(N(CCCO)c2ccc3ncc(-c4cccnc4F)nc3c2)c1 [Compound 149]
20 | <5 | 513 | <5 | > 1000 | 200 | COc1cc(OC)cc(N(CCO)c2ccc3ncc(-c4ccccc4CCO)nc3c2)c1 [Compound 151]
21 | 5.4 | 95.5 | <5 | 407 | 24 | COc1cc(OC)cc(N(CCO)c2ccc3ncc(-c4ccc(N5CCN(C(=O)OC(C)(C)C)CC5)cc4)nc3c2)c1 [Compound 156]
22 | <5 | 15.8 | 5.32 | 355 | 7.94 | COc1cc(OC)cc(N(CCO)c2ccc3ncc(-c4ccc(N5CCN(C)CC5)nc4)nc3c2)c1 [Compound 163]
23 | 6.6 | 12.6 | 5.38 | 129 | 4.9 | COc1cc(OC)cc(N(CCO)c2ccc3ncc(-c4ccc(N5CCNCC5)nc4)nc3c2)c1 [Compound 165]
24 | 6.7 | 3.63 | 5.46 | 23.4 | 0.832 | COc1cc(OC)cc(N(CCO)c2ccc3ncc(-c4ccc(N5CCNCC5)cc4)nc3c2)c1 [Compound 166]
25 | 6.9 | 3.72 | 5.13 | 63.1 | 3.24 | COc1cc(OC)cc(N(CCNC(C)C)c2ccc3ncc(-c4ccc(N5CCOCC5)nc4)nc3c2)c1 [Compound 168]
